Data as given in PubChem BioAssay (NCI).
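1) Cells in 96-well plates. 2) Compound, 48 h, 5 concentrations. 3) Linear interpolation between surrounding doses. 4) Unreached endpoint = highest concentration. At the GI50, growth is halved. The concentration for full growth arrest is given as TGI.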

Legend:
Experiment in all cases: NCI tumour cell line growth inhibition, 48 h
TK-10 renal = tested on: TK-10 renal
SK-MEL-28 melanoma = tested on: SK-MEL-28 melanoma
CAKI-1 renal = tested on: CAKI-1 renal
RPMI-8226 leukemia = tested on: RPMI-8226 leukemia
IGROV1 ovarian = tested on: IGROV1 ovarian
CCRF-CEM leukemia = tested on: CCRF-CEM leukemia
SR leukemia = tested on: SR leukemia
SK-MEL-5 melanoma = tested on: SK-MEL-5 melanoma
MDA-MB-435 = tested on: MDA-MB-435
MDA-MB-231 breast = tested on: MDA-MB-231 breast
K-562 leukemia = tested on: K-562 leukemia
HT29 colon = tested on: HT29 colon
U251 CNS = tested on: U251 CNS
UACC-62 melanoma = tested on: UACC-62 melanoma
LOX IMVI melanoma = tested on: LOX IMVI melanoma
DU-145 prostate = tested on: DU-145 prostate
SF-539 CNS = tested on: SF-539 CNS
MALME-3M melanoma = tested on: MALME-3M melanoma
HCT-116 colon = tested on: HCT-116 colon
OVCAR-5 ovarian = tested on: OVCAR-5 ovarian
HL-60(TB) leukemia = tested on: HL-60(TB) leukemia
SK-MEL-2 melanoma = tested on: SK-MEL-2 melanoma
OVCAR-8 ovarian = tested on: OVCAR-8 ovarian
KM12 colon = tested on: KM12 colon
786-0 renal = tested on: 786-0 renal
SW-620 colon = tested on: SW-620 colon
EKVX NSCLC = tested on: EKVX NSCLC
MCF7 breast = tested on: MCF7 breast
SK-OV-3 ovarian = tested on: SK-OV-3 ovarian
NCI-H460 lung = tested on: NCI-H460 lung
SF-268 CNS = tested on: SF-268 CNS
HCT-15 colon = tested on: HCT-15 colon
HCC-2998 colon = tested on: HCC-2998 colon
SN12C renal = tested on: SN12C renal
HOP-62 NSCLC = tested on: HOP-62 NSCLC
MOLT-4 leukemia = tested on: MOLT-4 leukemia
OVCAR-4 ovarian = tested on: OVCAR-4 ovarian
RXF 393 renal = tested on: RXF 393 renal
SF-295 CNS = tested on: SF-295 CNS
OVCAR-3 ovarian = tested on: OVCAR-3 ovarian
COLO 205 colon = tested on: COLO 205 colon
SNB-75 CNS = tested on: SNB-75 CNS
UACC-257 melanoma = tested on: UACC-257 melanoma
PC-3 prostate = tested on: PC-3 prostate
NCI-H522 lung = tested on: NCI-H522 lung
NCI-H23 lung = tested on: NCI-H23 lung
A549 NSCLC = tested on: A549 NSCLC
SNB-19 CNS = tested on: SNB-19 CNS
M14 melanoma = tested on: M14 melanoma
NCI/ADR-RES ovarian = tested on: NCI/ADR-RES ovarian
HS 578T breast = tested on: HS 578T breast
HOP-92 NSCLC = tested on: HOP-92 NSCLC
A498 renal = tested on: A498 renal
UO-31 renal = tested on: UO-31 renal
ACHN renal = tested on: ACHN renal
T-47D breast = tested on: T-47D breast
BT-549 breast = tested on: BT-549 breast
NCI-H226 lung = tested on: NCI-H226 lung

## S=c1ssnc1-c1ccccn1
TK-10 renal
  GI50: 5.04 µM
  TGI: 32.4 µM
SK-MEL-28 melanoma
  GI50: 2.87 µM
  TGI: 13 µM
CAKI-1 renal
  GI50: 3.07 µM
  TGI: 16.3 µM
RPMI-8226 leukemia
  GI50: 2.58 µM
  TGI: 29.3 µM
IGROV1 ovarian
  GI50: 1.81 µM
  TGI: 11 µM
CCRF-CEM leukemia
  GI50: 1.27 µM
  TGI: 4.24 µM
SR leukemia
  GI50: 0.521 µM
  TGI: > 21.5 µM
SK-MEL-5 melanoma
  GI50: 8.81 µM
  TGI: > 37.6 µM
MDA-MB-435
  GI50: 3.28 µM
  TGI: 16.3 µM
MDA-MB-231 breast
  GI50: 3.44 µM
  TGI: 22 µM
K-562 leukemia
  GI50: 1.4 µM
  TGI: 16.2 µM
HT29 colon
  GI50: 5.28 µM
  TGI: > 40.7 µM
U251 CNS
  GI50: 4.63 µM
  TGI: 33.2 µM
UACC-62 melanoma
  GI50: 5.31 µM
  TGI: 21.1 µM
LOX IMVI melanoma
  GI50: 2.54 µM
  TGI: 12.1 µM
DU-145 prostate
  GI50: 1.34 µM
  TGI: 13.8 µM
SF-539 CNS
  GI50: 2.52 µM
  TGI: 15.1 µM
MALME-3M melanoma
  GI50: 7.77 µM
  TGI: 36.1 µM
HCT-116 colon
  GI50: 1.24 µM
  TGI: > 20.1 µM
OVCAR-5 ovarian
  GI50: 5.38 µM
  TGI: 25.1 µM
HL-60(TB) leukemia
  GI50: 1.37 µM
  TGI: 4.65 µM
SK-MEL-2 melanoma
  GI50: 1.88 µM
  TGI: 5.73 µM
OVCAR-8 ovarian
  GI50: 3.17 µM
  TGI: 23 µM
KM12 colon
  GI50: 3.72 µM
  TGI: 15.4 µM
786-0 renal
  GI50: 2.54 µM
  TGI: > 25.4 µM
SW-620 colon
  GI50: 2.72 µM
  TGI: 14.5 µM
EKVX NSCLC
  GI50: 5.64 µM
  TGI: 22 µM
MCF7 breast
  GI50: 2.84 µM
  TGI: > 35.9 µM
SK-OV-3 ovarian
  GI50: 12.8 µM
  TGI: > 86.9 µM
NCI-H460 lung
  GI50: 1.82 µM
  TGI: 11.6 µM
SF-268 CNS
  GI50: 2.71 µM
  TGI: 20.1 µM
HCT-15 colon
  GI50: 2.2 µM
  TGI: 15.7 µM
HCC-2998 colon
  GI50: 3.4 µM
  TGI: 12.7 µM
SN12C renal
  GI50: 5.91 µM
  TGI: 32 µM
HOP-62 NSCLC
  GI50: 3.83 µM
  TGI: 27.9 µM
MOLT-4 leukemia
  GI50: 1.27 µM
  TGI: 4.58 µM
OVCAR-4 ovarian
  GI50: 9.36 µM
  TGI: > 100 µM
RXF 393 renal
  GI50: 3.05 µM
  TGI: 6.47 µM
SF-295 CNS
  GI50: 5.17 µM
  TGI: 24.9 µM
OVCAR-3 ovarian
  GI50: 3.21 µM
  TGI: 17.8 µM
COLO 205 colon
  GI50: 3.96 µM
  TGI: 17.8 µM
SNB-75 CNS
  GI50: 3.13 µM
  TGI: > 38.6 µM
UACC-257 melanoma
  GI50: 3.1 µM
  TGI: 8.47 µM
PC-3 prostate
  GI50: 3 µM
  TGI: > 34.6 µM
NCI-H522 lung
  GI50: 1.84 µM
  TGI: 4.12 µM
NCI-H23 lung
  GI50: 3.77 µM
  TGI: 18.4 µM
A549 NSCLC
  GI50: 8.92 µM
  TGI: 37.9 µM
SNB-19 CNS
  GI50: 11.2 µM
  TGI: > 94.8 µM
M14 melanoma
  GI50: 2.58 µM
  TGI: 19.6 µM
NCI/ADR-RES ovarian
  GI50: 3.84 µM
  TGI: 39.7 µM
HS 578T breast
  GI50: 2.15 µM
  TGI: 7.86 µM
HOP-92 NSCLC
  GI50: 1.67 µM
  TGI: 6.73 µM
A498 renal
  GI50: 6.8 µM
  TGI: 31.8 µM
UO-31 renal
  GI50: 3.51 µM
  TGI: 22.2 µM
ACHN renal
  GI50: 2.25 µM
  TGI: 14.7 µM
T-47D breast
  GI50: 5.59 µM
  TGI: > 55.5 µM
BT-549 breast
  GI50: 6.38 µM
  TGI: 28.7 µM
NCI-H226 lung
  GI50: 7.08 µM
  TGI: 25.1 µM
